Data on 7 molecules can be found in patent US12318357B2, “Small molecule drugs and related methods for treatment of diseases related to TDP-43, alpha-synuclein, huntingtin's protein and tau protein oligomer formation” (ACELOT, INC., priority 2019, dated 2025).

As a reminder, the inhibition is the drop in the measured response relative to a control, in per cent.

Test [1] deals with TDP43 granules in U2OS cells stably expressing tGFP tagged human TDP-43. Kind of test: TDP43 granule formation inhibition in TDP43-tGFP-U2OS cells after sodium arsenite treatment. The following applies: for TDP43 granule formation inhibition in cells after arsenite treatment (overall result): 24 h pre-incubation, 1-10 μM, 250 μM sodium arsenite 120 min. The class given is cell-based. An excerpt: Amyotrophic lateral sclerosis (ALS) is one of the most common degenerative diseases of the motor neuron system. TDP-43 related pathologies seem to be a dominant type of pathologies across sporadic ALS types. A novel fluorescence cell-based assay for High Content Screening that allows the quantification of pathological TDP43 granules has been developed. In this work we have used this model to screen the effects of three compounds, using Riluzole as a positive control. The TDP-43 U2OS cell line contains U2OS cells stably expressing the tGFP tagged human TDP-43. This cell line has been designed to test compounds and to analyse their capability to modulate TDP43 granule formation after cytotoxic stress induction. The cell line was generated in Innoprot. It is a stable cell line that express the LacRI repressor protein and the TDP43-turboGFP protein. The cell line was generated using the pCMVLacRI-Hygro plasmid (Hygromycin resistance) and the pPuro-TDP43tGFP plasmid (that confers the puromycin resistance). The cell line was generated transfecting these plasmids with Lipofectamine LTX reagent, and the transfected cells were diluted until critical dilution. The negative control show a diffuse nuclear distribution of the fluorescence, but after sodium arsenite treatment the phenotype turns into a cytosolic vesicular pattern corresponding to stress granules and into an intensive nuclear granules pattern. The aim of this work was to assess different doses of 11 compounds.
The objective of these experiments was to screen the protective effect of 11 compounds and reference compound (arimoclomol) against cellular oxidative stress induced by sodium arsenite (i.e., arsenite). The compounds have been tested at 10 μM, […], 2 μM and 1 μM each, and appropriate controls (vehicle, arsenite and controls) have been included as well. The compound tested were the following: 101, 102, 103, 104, 105, 106, 107, 201, 202, 203 and 204.
Each compound was prepared in Optimem. In the final dilution, DMSO was added in order to obtain a final DMSO concentration of 0.1$, the same that the reference compound (arimoclomol). All compounds were tested at 0.1% DMSO (vehicle) final concentration.
Day 1 (Thursday). Recombinant TDP43-tGFP-U2OS cell line was thawed (2×10^6 cells per T75). Day 2 (Friday). After 24 hours, Cells were maintained in DMEM-F12 supplemented with 10% FBS at 37° C. in a humidified 5% CO2 atmosphere. Day 5 (Monday). Cells were plated in coated 96-well plates with a number of 10.000 cells (+/−2000 cells) per well. Cells were maintained in DMEM-F12 medium supplemented with 10% FBS for 24 h at 37° C. in a humidified 5% CO2 atmosphere. Day 6 (Tuesday). Cells were incubated with test compounds and IPTG 1 mM in triplicate assays during 24 hours. Day 7 (Wednesday). Culture medium was replaced, and cells were treated with 250 μM of sodium arsenite during 120 min and TDP-43 globs formation was quantified in both cell cytoplasm and cell nucleus. The TDP43 granules formation was quantified after the formaldehyde fixation (3.7 wt. %, 20 minutes) of the cells. The nuclei were stained using DAPI (2 μg/ml) and the fluorescence was measured using a Cell Insight High-Content Bioimager from Thermofisher. To detect the DAPI, the filters used were 380/10 and 460/10 nm for excitation and emission, respectively and to detect the TDP43 granules, the filters were 488/20 and 520/20 nm, respectively. The images were obtained with an objective of 20×, taking 9 pictures of each well. Cell quantification was performed delimitating the region of interest of the nuclei (stained with DAPI) and after quantification, the average of each triplicate was performed. Granule quantification was also performed using the Thermofisher Cellomics Scan Viewer 6.1.1. Spot detector application from Cell Software delimitated 2 regions of interest, the nuclei and cytosol. This software application quantified the number of granules per nuclei and the average granule number per cytosol of each well was calculated. […]

In test [2] the target is T1, TDP-43307-319 WT peptide (Homo sapiens, UniProt Q13148).
T1 construct: TDP-43307-319 WT peptide 307 [MGGGMNF GAFSIN]319; made in house; host or cells: chemical synthesis (Fmoc solid phase peptide synthesis), not recombinant
Kind of test: IM-MS monitoring of oligomerization of TDP-43307-319 (recovery study on aggregated peptide). It counts as biochemical. The settings on record: for oligomer distribution initially after addition of inhibitor to aggregated WT peptide: initial time point; for remodeling of developed higher-order oligomers and prevention of re-formation (overall): recovery study on aggregated peptide; for rate of redistribution relative to the other inhibitors: recovery study, comparison among molecules; for oligomer distribution a week after single treatment: one week. Here is the method:
Peptide Synthesis and Purification. TDP-43307-319 WT peptide 307 [MGGGMNF GAFSIN]319 was synthesized using standard 9-fluorenylmethoxycarbonyl (Fmoc) chemistry using 2-(1H-benzotriazol-1-yl)-1,1,3,3-tetramethyluronium hexafluorophosphate/hydroxy-benzotriazole (HBTU/HOBT) manual solid phase peptide synthesis. The peptide was amidated with an Fmoc-Rink Amide resin (Anaspec). The peptide was cleaved from the resin using 94% TFA, 5% triisopropylsilane, and 1% phenol for 2 h at 295 K. The crude peptide was purified by reverse phase high performance liquid chromatography (RP-HPLC) on a semipreparative C18 column (Phenomenex) using gradients of water [0.1% (v/v) TFA] and acetonitrile [0.1% (v/v) TFA]. The peptide was dissolved in 6 M guanidine hydrochloride (GdnHCl) prior to injection due to its insolubility in water and acetonitrile. The peptide purity was >93% as determined by analytical RP-HPLC. The molecular mass of the peptide was verified by ESI mass spectrometry.
IM-MS was utilized to monitor the oligomerization of TDP-43307-319 in the presence of molecules AC0107, AC0105, AC0102 and AC0201. The ability of IMMS to separate species of a specific [m]z+ (m=mass, z=charge) that contains different [n]z+ (n=oligomer number) by measuring the arrival time distributions (ATDs) yields oligomeric distributions. Samples were prepared as mentioned previously and incubated at room temperature under quiescent conditions.
The TDP-43307-319 WT peptide was dissolved in 10 mM ammonium acetate (pH 7.4) with 2% HFIP to a final peptide concentration of 100 μM. The sample was incubated at room temperature under quiescent conditions for 4 h to develop higher-order oligomers. Two dominant mass/charge (m/z) peaks were always present in the mass spectra corresponding to [n]Z+=[1]1+ and [1]2+. […] After incubation at room temperature for 4 h, the distribution shifted toward the higher-order oligomers. […] Once the presence of higher-order oligomers was confirmed, an inhibitor (either [AC0107], [AC0105], [AC0102], [AC0201] or [AC0202]) was added in a 1:1 peptide (100 μM): inhibitor (100 μM) molar ratio. Subsequent time points were taken to monitor the remodeling properties of the inhibitors.

In test [3] the target is T1, TDP-43307-319 WT peptide. Described as above. The class given is biochemical. The settings on record: 100 μM peptide.
Setting [4] is: Homo sapiens, U2OS, normalized to sodium arsenite and vehicle, read-out: maximum stress granule inhibition in cytosol.
The mark [5] stands for this setting: 1:1 peptide (100 μM): inhibitor (100 μM), added after 4 h aggregation.

Entries after “also recorded” stand apart in the source; their conditions may differ. Like-named read-outs stand apart in the source and are kept apart here. A value given as a limit tells only on which side of the number the result lay.

On to `CC(=O)Nc1ccc(CNCCc2cccc(Cl)c2)cc1` [AC0101, N-[4-({[2-(3-chlorophenyl)ethyl]amino}methyl)phenyl]acetamide], for which the “TDP43 granule formation inhibition in cells after arsenite treatment (overall result)” value (from here on “TDP43 granule formation inhibition”) in test [1] is recorded as “positive”. The inhibition at 5 µM in test [1] (Homo sapiens, U2OS, at 5 μM, normalized to sodium arsenite and vehicle, read-out: maximum stress granule inhibition in nucleus) was found to be 62.5%. Also, the inhibition at 10 µM in test [1] (setting [4]) was 44%.

With `CN(C)Cc1ccc(CNCc2ccc3c(c2)OCCO3)cc1` [AC0102, (2,3-dihydro-1,4-benzodioxin-6-ylmethyl)({4 [(dimethylamino)-methyl]phenyl}methyl)amine], the “oligomer distribution after 1 h” value in test [2] (1:1, 100 μM each, 1 h after addition) is given as “remnants of higher-order oligomers are present”. Also, the “oligomer distribution initially after addition of inhibitor to aggregated WT peptide” value in test [2] (1:1, 100 μM each) is “shift toward higher-order oligomers”. The “oligomer distribution at later time points” value in test [2] (1:1, 100 μM each, later time points) was “composed primarily of monomer and dimer”. In addition, the “remodeling of developed higher-order oligomers and prevention of re-formation (overall)” value (“remodeling” for short) in test [2] was “able to remodel the developed higher-order oligomers and prevent the re-formation of these toxically related species”. The “rate of redistribution relative to the other inhibitors” value in test [2] is listed as “slower rate”. The “TDP43 granule formation inhibition” value in test [1] is given as “positive”. Also, the inhibition at 10 µM was determined as 36.9% in test [1] (setting [4]); 27.7% in test [1] (Homo sapiens, U2OS, normalized to sodium arsenite and vehicle, read-out: maximum stress granule inhibition in nucleus).

Take `CN(C)C(=O)C(c1ccccc1)N1CCN(c2ccc(O)cc2)CC1` (stereo not shown) [AC0103, 2-[4-(4-hydroxyphenyl)piperazin-1-yl]-N,N-dimethyl-2 phenylacetamide]: the “TDP43 granule formation inhibition” value in test [1] is given as “positive”. Further, the inhibition at 10 µM in test [1] (setting [4]) was determined as 47.2%.

Take `N#Cc1cccc(CNCc2ccc(CN3CCOCC3)cc2)c1` [AC0104, 3-[({[4-(morpholin-4 ylmethyl)phenyl]methyl}amino)methyl]benzonitrile]: in test [1], the “TDP43 granule formation inhibition” value is reported as “mildly active”.

In the case of `N#Cc1ccc(CNCc2ccc(CN3CCCC3)cc2)cc1` [AC0105, 4-[({[4-(pyrrolidin-1 ylmethyl)phenyl]methyl}amino)methyl]benzonitrile], in test [2] (1:1, 100 μM each), the “oligomer distribution initially after addition of inhibitor to aggregated WT peptide” value is “immediate dissociation of higher-order oligomers into monomer and dimer”; the “oligomer distribution a week after single treatment” value is reported as “maintained for a week”. In addition, in test [2], the “remodeling” value is “able to remodel the developed higher-order oligomers and prevent the re-formation of these toxically related species”. Besides, in test [1], the “TDP43 granule formation inhibition” value is on record as “mildly active”.

As to `N#Cc1ccc(CNCc2cccc(CN3CCCC3)c2)cc1` [AC0107, 4-[({[3-(pyrrolidin-1-ylmethyl)phenyl]methyl}amino)methyl]benzonitrile], in test [2] (1:1, 100 μM each), the “time by which redistribution to mostly monomer and dimer is seen” value is recorded as ≥ 3 h; the “oligomer distribution initially after addition of inhibitor to aggregated WT peptide” value is “initial increase in the number of higher-order oligomers”. Also, in test [2] (setting [5]), the “complexation between WT peptide and molecule in mass spectra” value is “no complexation”; the “level of aggregation (signal-to-noise ratio, baseline, [1]1+ peak) after addition of inhibitor” value was “level of aggregation was reduced”. The “remodeling” value in test [2] is “able to remodel the developed higher-order oligomers and prevent the re-formation of these toxically related species”.

Consider `CC(C)C(NCc1ccccc1)c1cccc(C=O)c1` (stereo not shown) [AC0201, 3-[1-(benzylamino)-2-methylpropyl]benzaldehyde], for which, in test [3] (10 μM inhibitor), the “redistribution of oligomers at 10:1 peptide:inhibitor molar ratio” value is listed as “takes a longer time to dissociate oligomers to mostly monomer; also recorded: very effective inhibitor; also recorded: effective”. In test [3] (25 μM inhibitor), the “redistribution of oligomers at 4:1 peptide:inhibitor molar ratio” value was “effective at redistributing and maintaining the population of lower-order oligomers”. In test [3] (50 μM inhibitor), the “redistribution of oligomers at 2:1 peptide:inhibitor molar ratio” value was “effective at redistributing and maintaining the population of lower-order oligomers”. In addition, the “oligomer distribution at 3-24 h” value in test [2] (1:1, 100 μM each, 3-24 h after addition) was “dominated by monomer and dimer”. Besides, in test [2] (1:1, 100 μM each), the “oligomer distribution initially after addition of inhibitor to aggregated WT peptide” value was “immediately pushed the bulk of the distribution back to monomer, dimer, and trimer”; the “oligomer distribution a week after single treatment” value was “dominate monomer peak was observed”. For the same molecule, in test [2], the “remodeling” value is “successfully redistributed the oligomers to monomer and was able to prevent the re-formation of higher-order oligomers”; the “rate of redistribution relative to the other inhibitors” value is “fastest and most efficient redistribution”.
